Laboratory results reported in ChEMBL document CHEMBL4049442, “Design, Synthesis, and Biological Evaluation of Dimorpholine Substituted Thienopyrimidines as Potential Class I PI3K/mTOR Dual Inhibitors” (J Med Chem, 2017).
Calls of active or inactive are those of the source. No cut-off for these calls is given here.

Columns and labels:
[1] = species: Homo sapiens; test: Inhibition of PI3K in human U87MG cells assessed as reduction in Akt phosphorylation at S473 after 24 hrs by Western blot analysis; type: cell-based
[2] = Oral bioavailability in Sprague-Dawley rat at 10 mg/kg by LC-MS/MS analysis; type: ADME, organism-based; conditions: in vivo
[3] = tested on: SK-OV-3; test: Antitumor activity against human SKOV3 cells xenografted in BALB/c nude mouse assessed as decrease in cell proliferation administered po for 24 days by Ki67 staining based assay; type: functional, organism-based
[4] = Volume of distribution at steady state in Sprague-Dawley rat at 2 mg/kg, iv by LC-MS/MS analysis; type: ADME, organism-based; conditions: in vivo, read-out: Vdss
[5] = molecular target: PI3-kinase p110-alpha/p85-alpha (Homo sapiens, UniProt P42336); test: Inhibition of full length recombinant human N-terminal His-tagged PI3K p110alpha/p85alpha expressed in baculovirus using PIP2 as substrate after 1 hr by kinase-glo luminescence assay
Sequence of PI3-kinase p110-alpha/p85-alpha (P27986 whole entry, canonical isoform): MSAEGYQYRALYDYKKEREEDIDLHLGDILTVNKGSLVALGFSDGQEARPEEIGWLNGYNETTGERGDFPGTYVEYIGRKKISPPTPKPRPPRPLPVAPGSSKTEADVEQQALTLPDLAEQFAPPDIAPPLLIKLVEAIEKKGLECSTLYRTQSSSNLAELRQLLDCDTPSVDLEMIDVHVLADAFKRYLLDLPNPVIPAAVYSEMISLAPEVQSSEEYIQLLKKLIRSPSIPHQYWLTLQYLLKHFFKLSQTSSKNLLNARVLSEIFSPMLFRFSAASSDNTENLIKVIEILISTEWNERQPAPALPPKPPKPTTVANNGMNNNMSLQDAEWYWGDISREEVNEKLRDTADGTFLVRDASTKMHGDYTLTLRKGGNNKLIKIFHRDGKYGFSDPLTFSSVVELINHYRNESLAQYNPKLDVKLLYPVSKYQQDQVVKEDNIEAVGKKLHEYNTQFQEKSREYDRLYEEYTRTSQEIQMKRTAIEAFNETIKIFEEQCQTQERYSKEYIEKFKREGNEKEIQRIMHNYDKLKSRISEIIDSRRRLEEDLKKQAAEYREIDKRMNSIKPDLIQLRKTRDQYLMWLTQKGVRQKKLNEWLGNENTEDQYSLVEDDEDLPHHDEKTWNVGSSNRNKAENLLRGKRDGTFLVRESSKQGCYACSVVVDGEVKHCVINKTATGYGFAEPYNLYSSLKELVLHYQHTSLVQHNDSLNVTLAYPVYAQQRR
Sequence of PI3-kinase p110-alpha/p85-alpha (P42336 whole entry, canonical isoform): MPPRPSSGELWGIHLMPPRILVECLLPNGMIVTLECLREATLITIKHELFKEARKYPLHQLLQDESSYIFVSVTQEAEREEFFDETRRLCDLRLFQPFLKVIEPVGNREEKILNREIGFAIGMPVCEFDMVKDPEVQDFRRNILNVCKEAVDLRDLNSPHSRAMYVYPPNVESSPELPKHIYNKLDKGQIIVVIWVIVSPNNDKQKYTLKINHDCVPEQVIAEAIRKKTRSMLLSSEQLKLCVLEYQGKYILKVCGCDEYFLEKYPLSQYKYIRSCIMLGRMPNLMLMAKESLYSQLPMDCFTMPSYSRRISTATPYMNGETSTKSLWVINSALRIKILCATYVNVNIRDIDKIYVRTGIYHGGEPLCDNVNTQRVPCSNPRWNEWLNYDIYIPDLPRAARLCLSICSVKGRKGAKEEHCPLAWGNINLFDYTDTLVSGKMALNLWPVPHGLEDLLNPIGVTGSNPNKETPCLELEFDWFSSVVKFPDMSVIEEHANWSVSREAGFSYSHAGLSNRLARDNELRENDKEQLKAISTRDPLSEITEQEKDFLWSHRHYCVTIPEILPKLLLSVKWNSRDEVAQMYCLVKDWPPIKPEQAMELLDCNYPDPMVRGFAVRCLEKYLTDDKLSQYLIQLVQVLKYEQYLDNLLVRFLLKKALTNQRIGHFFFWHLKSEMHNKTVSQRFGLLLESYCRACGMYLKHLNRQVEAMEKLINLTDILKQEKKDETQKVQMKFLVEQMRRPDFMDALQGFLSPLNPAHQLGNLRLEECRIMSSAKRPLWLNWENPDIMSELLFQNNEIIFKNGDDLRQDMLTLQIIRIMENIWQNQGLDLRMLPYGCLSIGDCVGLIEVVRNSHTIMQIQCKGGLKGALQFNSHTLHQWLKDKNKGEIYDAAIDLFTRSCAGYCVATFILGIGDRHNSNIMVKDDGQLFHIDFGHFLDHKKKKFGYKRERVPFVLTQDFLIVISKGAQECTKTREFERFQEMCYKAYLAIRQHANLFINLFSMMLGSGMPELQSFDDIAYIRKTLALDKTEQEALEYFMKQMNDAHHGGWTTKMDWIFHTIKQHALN

[6] = molecular target: Phosphatidylinositol 4,5-bisphosphate 3-kinase catalytic subunit gamma isoform (Homo sapiens, UniProt P48736); test: Inhibition of recombinant human His-tagged PI3K p110gamma expressed in baculovirus using PIP2 as substrate after 1 hr by kinase-glo luminescence assay
Sequence of Phosphatidylinositol 4,5-bisphosphate 3-kinase catalytic subunit gamma isoform (P48736 whole entry, canonical isoform): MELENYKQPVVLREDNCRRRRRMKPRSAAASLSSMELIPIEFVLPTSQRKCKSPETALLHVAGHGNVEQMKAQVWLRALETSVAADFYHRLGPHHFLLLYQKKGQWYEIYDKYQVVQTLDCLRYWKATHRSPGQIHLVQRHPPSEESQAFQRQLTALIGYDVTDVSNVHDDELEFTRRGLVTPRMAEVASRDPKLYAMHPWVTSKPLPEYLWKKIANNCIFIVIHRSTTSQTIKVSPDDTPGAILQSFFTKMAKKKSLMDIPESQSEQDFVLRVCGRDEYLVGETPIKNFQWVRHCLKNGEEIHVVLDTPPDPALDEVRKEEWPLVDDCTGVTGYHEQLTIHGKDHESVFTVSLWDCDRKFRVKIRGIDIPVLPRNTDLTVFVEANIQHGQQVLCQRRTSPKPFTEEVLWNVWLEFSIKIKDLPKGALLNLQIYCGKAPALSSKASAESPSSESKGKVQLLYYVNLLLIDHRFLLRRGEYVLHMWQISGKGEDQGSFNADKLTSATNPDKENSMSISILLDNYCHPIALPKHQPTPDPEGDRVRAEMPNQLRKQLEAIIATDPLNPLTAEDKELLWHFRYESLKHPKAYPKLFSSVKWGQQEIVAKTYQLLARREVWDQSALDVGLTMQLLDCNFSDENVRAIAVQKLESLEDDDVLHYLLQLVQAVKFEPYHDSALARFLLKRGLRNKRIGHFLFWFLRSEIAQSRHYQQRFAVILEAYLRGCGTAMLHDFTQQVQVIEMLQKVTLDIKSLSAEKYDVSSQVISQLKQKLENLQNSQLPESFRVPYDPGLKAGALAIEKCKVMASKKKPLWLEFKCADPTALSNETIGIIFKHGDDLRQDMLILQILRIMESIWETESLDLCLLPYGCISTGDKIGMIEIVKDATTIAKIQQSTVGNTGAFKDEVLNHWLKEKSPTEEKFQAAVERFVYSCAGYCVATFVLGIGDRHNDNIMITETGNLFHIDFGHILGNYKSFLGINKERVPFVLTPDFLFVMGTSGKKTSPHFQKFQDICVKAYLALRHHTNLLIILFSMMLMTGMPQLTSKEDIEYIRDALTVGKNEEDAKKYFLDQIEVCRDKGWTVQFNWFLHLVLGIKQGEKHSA

[7] = AUC in Sprague-Dawley rat at 10 mg/kg, po by LC-MS/MS analysis; type: ADME, organism-based; conditions: in vivo
[8] = molecular target: Serine/threonine-protein kinase mTOR (Homo sapiens, UniProt P42345); test: Inhibition of recombinant human N-terminal FLAG-tagged mTOR (1362 to end residues) expressed in baculovirus infected Sf21 insect cells assessed as reduction in ULight-4E-BP1 phosphorylation after 30 mins by lance ultra assay
[9] = species: Homo sapiens; test: Inhibition of PI3K in human U87MG cells assessed as reduction in Akt phosphorylation at T308 after 24 hrs by Western blot analysis; type: cell-based
[10] = species: Homo sapiens; test: Inhibition of PI3K in human U87MG cells assessed as reduction in S6 phosphorylation after 24 hrs by Western blot analysis; type: cell-based
[11] = Cmax in Sprague-Dawley rat at 10 mg/kg, po by LC-MS/MS analysis; type: ADME, organism-based; design: dose 10 mg/kg, route oral; conditions: in vivo
[12] = tested on: SK-OV-3; test: cells; conditions: Homo sapiens, SK-OV-3, 72 h
[13] = tested on: SK-OV-3; test: Antitumor activity against human SKOV3 cells xenografted in BALB/c nude mouse assessed as TUNEL positive cells at 15 to 60 mg/kg/day, po for 24 days; type: functional, organism-based
[14] = tested on: U-87 MG; test: cells; conditions: Homo sapiens, 72 h
[15] = tested on: Mus musculus; test: In vivo inhibition of PI3K in BALB/c nude mouse xenografted with human SKOV3 cells assessed as reduction in S6RP phosphorylation at Ser235/236 administered po for 24 days in tumors by immunohistochemical analysis; type: functional, organism-based
[16] = Clearance in Sprague-Dawley rat at 2 mg/kg, iv by LC-MS/MS analysis; type: ADME, organism-based; conditions: in vivo
[17] = species: Homo sapiens; test: Inhibition of PI3K in human SKOV3 cells assessed as reduction in S6 phosphorylation after 24 hrs by Western blot analysis; type: cell-based
[18] = tested on: Mus musculus; test: Toxicity in BALB/c nude mouse xenografted with human SKOV3 cells assessed as body weight loss at 15 to 60 mg/kg/day, po for 24 days measured every 3 days during compound dosing; type: organism-based; conditions: in vivo
[19] = tested on: SK-OV-3; test: Antitumor activity against human SKOV3 cells xenografted in BALB/c nude mouse assessed as tumor growth inhibition administered via po for 24 days measured every 3 days during compound dosing; type: functional, organism-based
[20] = tested on: SK-OV-3; test: Antitumor activity against human SKOV3 cells xenografted in BALB/c nude mouse assessed as tumor growth inhibition at 15 mg/kg/day, po for 24 days measured every 3 days during compound dosing relative to control; type: functional; conditions: SK-OV-3, po, read-out: TGI
[21] = tested on: U-87 MG; test: Antitumor activity against human U87MG cells xenografted in BALB/c nude mouse assessed as tumor growth inhibition at 40 mg/kg/day, po for 18 days measured every 3 days during compound dosing relative to control; type: functional, U-87MG ATCC; conditions: read-out: TGI
[22] = tested on: U-87 MG; test: Antitumor activity against human U87MG cells xenografted in BALB/c nude mouse assessed as tumor growth inhibition at 20 mg/kg/day, po for 18 days measured every 3 days during compound dosing relative to control; type: functional, U-87MG ATCC; conditions: read-out: TGI
[23] = tested on: PC-3; test: cells; conditions: Homo sapiens, PC-3, 72 h
[24] = tested on: SK-OV-3; test: Antitumor activity against human SKOV3 cells xenografted in BALB/c nude mouse assessed as tumor growth inhibition at 60 mg/kg/day, po for 24 days measured every 3 days during compound dosing relative to control; type: functional; conditions: SK-OV-3, po, read-out: TGI
[25] = molecular target: PI3-kinase p110-delta/p85-alpha (Homo sapiens, UniProt O00329); test: Inhibition of recombinant full length human N-terminal His6-tagged PI3K p110delta/p85alpha expressed in baculovirus infected Sf21 cells using PIP2 as substrate after 2 hrs by kinase-glo luminescence assay
Sequence of PI3-kinase p110-delta/p85-alpha (P27986 whole entry): as the sequence (P27986 whole entry, canonical isoform) above
Sequence of PI3-kinase p110-delta/p85-alpha (O00329 whole entry): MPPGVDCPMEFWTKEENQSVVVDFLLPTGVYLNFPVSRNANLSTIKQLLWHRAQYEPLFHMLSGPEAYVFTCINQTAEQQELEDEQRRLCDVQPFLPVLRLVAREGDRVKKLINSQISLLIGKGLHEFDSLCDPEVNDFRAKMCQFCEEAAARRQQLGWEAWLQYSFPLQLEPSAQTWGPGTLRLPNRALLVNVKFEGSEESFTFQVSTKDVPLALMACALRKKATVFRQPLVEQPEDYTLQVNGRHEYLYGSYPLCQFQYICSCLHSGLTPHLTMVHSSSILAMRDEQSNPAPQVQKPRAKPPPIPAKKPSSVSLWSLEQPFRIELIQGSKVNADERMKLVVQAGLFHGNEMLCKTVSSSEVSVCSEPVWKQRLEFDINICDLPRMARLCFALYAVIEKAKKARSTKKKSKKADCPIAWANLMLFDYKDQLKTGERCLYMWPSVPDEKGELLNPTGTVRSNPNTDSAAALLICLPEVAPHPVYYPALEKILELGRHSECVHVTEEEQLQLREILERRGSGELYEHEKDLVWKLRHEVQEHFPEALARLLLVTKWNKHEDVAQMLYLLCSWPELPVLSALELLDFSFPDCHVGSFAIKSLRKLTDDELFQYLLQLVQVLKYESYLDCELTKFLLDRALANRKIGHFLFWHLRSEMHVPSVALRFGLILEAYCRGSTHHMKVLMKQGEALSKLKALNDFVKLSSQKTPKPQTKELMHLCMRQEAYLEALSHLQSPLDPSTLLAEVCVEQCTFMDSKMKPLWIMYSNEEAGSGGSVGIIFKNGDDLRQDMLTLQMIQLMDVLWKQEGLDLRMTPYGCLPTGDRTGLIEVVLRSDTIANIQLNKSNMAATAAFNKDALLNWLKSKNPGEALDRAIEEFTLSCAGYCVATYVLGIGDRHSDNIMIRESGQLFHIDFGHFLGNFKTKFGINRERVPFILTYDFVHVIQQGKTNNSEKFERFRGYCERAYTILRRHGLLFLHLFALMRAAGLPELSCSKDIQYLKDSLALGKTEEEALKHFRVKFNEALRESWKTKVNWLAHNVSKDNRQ

[26] = tested on: Mus musculus; test: In vivo inhibition of PI3K in BALB/c nude mouse xenografted with human SKOV3 cells assessed as reduction in Akt phosphorylation at S473 in tumors administered po for 24 days by immunohistochemical analysis; type: functional, organism-based
[27] = tested on: Mus musculus; test: Toxicity in BALB/c nude mouse xenografted with human U87MG cells assessed as body weight loss at 20 to 40 mg/kg/day, po for 18 days measured every 3 days during compound dosing; type: organism-based; conditions: in vivo
[28] = tested on: LNCaP; test: cells; conditions: Homo sapiens, 72 h
[29] = Half-life in Sprague-Dawley rat at 2 mg/kg, iv by LC-MS/MS analysis; conditions: in vivo
[30] = molecular target: Phosphatidylinositol 4,5-bisphosphate 3-kinase catalytic subunit beta isoform (Homo sapiens, UniProt P42338); test: Inhibition of PI3Kbeta (unknown origin) using PIP2 as substrate after 1 hr by ADP-Glo luminescence assay
Sequence of Phosphatidylinositol 4,5-bisphosphate 3-kinase catalytic subunit beta isoform (P42338 whole entry, canonical isoform): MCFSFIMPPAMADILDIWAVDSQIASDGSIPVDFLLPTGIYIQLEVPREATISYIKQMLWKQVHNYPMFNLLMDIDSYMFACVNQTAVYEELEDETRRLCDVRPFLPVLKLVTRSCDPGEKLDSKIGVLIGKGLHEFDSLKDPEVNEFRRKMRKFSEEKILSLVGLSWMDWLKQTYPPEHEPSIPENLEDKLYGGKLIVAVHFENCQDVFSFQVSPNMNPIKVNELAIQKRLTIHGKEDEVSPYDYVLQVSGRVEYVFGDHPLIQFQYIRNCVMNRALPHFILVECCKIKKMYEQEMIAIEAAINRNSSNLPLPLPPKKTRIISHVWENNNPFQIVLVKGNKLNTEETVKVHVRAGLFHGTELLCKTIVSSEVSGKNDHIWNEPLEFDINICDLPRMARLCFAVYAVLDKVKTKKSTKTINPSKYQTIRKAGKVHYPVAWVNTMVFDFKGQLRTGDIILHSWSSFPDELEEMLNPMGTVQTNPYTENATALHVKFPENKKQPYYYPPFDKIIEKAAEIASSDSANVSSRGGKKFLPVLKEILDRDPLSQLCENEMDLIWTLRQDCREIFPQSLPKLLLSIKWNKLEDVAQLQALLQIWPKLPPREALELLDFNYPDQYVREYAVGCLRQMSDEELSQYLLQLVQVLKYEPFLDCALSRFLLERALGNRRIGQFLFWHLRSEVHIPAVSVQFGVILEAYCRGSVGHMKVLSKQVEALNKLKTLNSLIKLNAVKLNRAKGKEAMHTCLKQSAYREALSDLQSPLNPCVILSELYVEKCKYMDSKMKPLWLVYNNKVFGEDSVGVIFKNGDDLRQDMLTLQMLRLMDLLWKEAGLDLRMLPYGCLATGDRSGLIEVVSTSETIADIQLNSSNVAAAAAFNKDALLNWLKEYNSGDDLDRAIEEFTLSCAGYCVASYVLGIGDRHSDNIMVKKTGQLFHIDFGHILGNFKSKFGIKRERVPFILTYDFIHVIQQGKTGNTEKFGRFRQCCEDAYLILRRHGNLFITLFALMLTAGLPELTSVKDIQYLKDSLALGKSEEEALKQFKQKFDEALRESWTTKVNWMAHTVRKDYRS

[31] = species: Homo sapiens; test: Inhibition of PI3K in human SKOV3 cells assessed as reduction in Akt phosphorylation at T308 after 24 hrs by Western blot analysis; type: cell-based
[32] = species: Homo sapiens; test: Inhibition of PI3K in human SKOV3 cells assessed as reduction in Akt phosphorylation at S473 after 24 hrs by Western blot analysis; type: cell-based
[33] = tested on: U-87 MG; test: Antitumor activity against human U87MG cells xenografted in BALB/c nude mouse assessed as tumor growth inhibition administered po for 18 days measured every 3 days during compound dosing; type: functional, organism-based; conditions: U-87MG ATCC
[34] = tested on: SK-OV-3; test: Antitumor activity against human SKOV3 cells xenografted in BALB/c nude mouse assessed as tumor growth inhibition at 30 mg/kg/day, po for 24 days measured every 3 days during compound dosing relative to control; type: functional; conditions: SK-OV-3, po, read-out: TGI

C[C@@H]1CN(c2nc(N3CCOCC3)c3sc(-c4ccn[nH]4)cc3n2)C[C@H](C)O1
inhibition [1]: Dose-dependent effect | bioavailability [2]: 41% | Activity [3]: Dose-dependent effect | Vd [4]: 4.4 L/kg | IC50 [5]: 15 nM | IC50 [6]: 75 nM | AUC [7]: 5.2 µM·h | IC50 [8]: 16 nM | inhibition [9]: Dose-dependent effect | inhibition [10]: Dose-dependent effect | Cmax [11]: 1400 nM | IC50 [12]: 504 nM | Activity [13]: Active | IC50 [14]: 430 nM | inhibition [15]: Dose-dependent effect | clearance [16]: 29 mL/min/kg | inhibition [17]: Dose-dependent effect | Activity [18]: Non-Toxic | TGI [19]: Dose-dependent effect | inhibition in vivo at 15 mg/kg/day [20]: 48.5% | inhibition in vivo at 40 mg/kg/day [21]: 81.2% | inhibition in vivo at 20 mg/kg/day [22]: 69.2% | IC50 [23]: 446 nM | inhibition in vivo at 60 mg/kg/day [24]: 89.6% | IC50 [25]: 10 nM | inhibition [26]: Dose-dependent effect | Activity [27]: Non-Toxic | IC50 [28]: 210 nM | half-life [29]: 1.5 h | IC50 [30]: 175 nM | inhibition [31]: Dose-dependent effect | inhibition [32]: Dose-dependent effect | TGI [33]: Dose-dependent effect | inhibition in vivo at 30 mg/kg/day [34]: 75.9%
